Assay results as given in paper PMC2943919, “Green Tea Catechin, Epigallocatechin Gallate, Suppresses Signaling by the dsRNA Innate Immune Receptor RIG-I” (PLoS ONE, 2010).

How the values were obtained:
[1] = target: T1, RIG-I (Retinoic acid-inducible gene I) (Homo sapiens, UniProt O95786); assay: RNA-dependent ATPase assay (ADP-Glo) at […]; assay type: biochemical; design: gene RIGI; recombinant RIG-I
T1 sequence (O95786 1-925): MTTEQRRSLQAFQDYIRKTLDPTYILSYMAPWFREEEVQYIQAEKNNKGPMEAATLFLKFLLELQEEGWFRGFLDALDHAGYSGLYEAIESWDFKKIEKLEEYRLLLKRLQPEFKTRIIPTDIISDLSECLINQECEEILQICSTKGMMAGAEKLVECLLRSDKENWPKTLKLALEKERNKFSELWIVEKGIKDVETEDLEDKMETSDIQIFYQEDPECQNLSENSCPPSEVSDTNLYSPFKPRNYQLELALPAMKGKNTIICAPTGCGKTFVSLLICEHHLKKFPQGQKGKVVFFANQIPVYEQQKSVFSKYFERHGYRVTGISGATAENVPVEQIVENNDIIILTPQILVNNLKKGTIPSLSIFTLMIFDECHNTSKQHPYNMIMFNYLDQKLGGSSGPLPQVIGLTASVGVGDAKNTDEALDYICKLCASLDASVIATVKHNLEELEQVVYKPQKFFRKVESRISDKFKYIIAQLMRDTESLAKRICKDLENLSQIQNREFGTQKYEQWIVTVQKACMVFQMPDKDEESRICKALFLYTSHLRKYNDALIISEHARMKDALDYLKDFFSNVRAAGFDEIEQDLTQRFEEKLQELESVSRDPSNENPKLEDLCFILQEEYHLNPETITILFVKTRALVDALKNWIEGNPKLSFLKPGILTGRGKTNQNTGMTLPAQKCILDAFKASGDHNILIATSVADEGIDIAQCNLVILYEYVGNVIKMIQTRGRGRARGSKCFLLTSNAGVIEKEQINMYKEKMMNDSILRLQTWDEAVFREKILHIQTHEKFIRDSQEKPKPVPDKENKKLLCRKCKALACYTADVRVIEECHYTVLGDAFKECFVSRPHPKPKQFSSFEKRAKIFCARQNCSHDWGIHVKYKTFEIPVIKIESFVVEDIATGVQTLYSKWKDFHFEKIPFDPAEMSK

[2] = target: T1, RIG-I (Retinoic acid-inducible gene I); assay: RNA-dependent ATPase assay (ADP-Glo) with recombinant RIG-I; supported by native gel mobility shift; assay type: biochemical; design: gene RIGI; recombinant full length RIG-I

SMILES | RNA-dependent ATPase assay (ADP-Glo) at 0.5 and 1 μM [1] | IC50 [2] [µM]
O=C(O[C@@H]1Cc2c(O)cc(O)cc2O[C@@H]1c1ccc(O)c(O)c1)c1cc(O)c(O)c(O)c1 [ECG, epicatechin gallate] | GCG, ECG, CG and TFDG inhibited the shR9-induced RIG-I ATPase activity to similar degree as EGCG | 
O=C(O[C@@H]1Cc2c(O)cc(O)cc2O[C@H]1c1cc(O)c(O)c(O)c1)c1cc(O)c(O)c(O)c1 [GCG, gallocatechin gallate] | GCG, ECG, CG and TFDG inhibited the shR9-induced RIG-I ATPase activity to similar degree as EGCG | 
O=C(O[C@@H]1Cc2c(O)cc(O)cc2O[C@@H]1c1cc(O)c(O)c(O)c1)c1cc(O)c(O)c(O)c1 [EGCG, Epigallocatechin gallate] |  | < 0.5
